Where “and” joins values, the source holds several entries; their conditions need not be identical. Identical values can stand only once. Like-named read-outs stand apart in the source and are kept apart here.
Tests used:
[1] = Pharmacokinetics of compound 6 in mice: plasma, urine, bladder, kidneys by HPLC-MS/MS; type: in vivo, female CBA/J mice; settings: for concentration at 52 h / concentration at 48 h: subcutaneous; for concentration at 52 h: 100 mg/kg s.c. once a day at 0, 24, 48 h; for concentration at 48 h: 100 mg/kg s.c. once a day, sample just prior to the 48-h injection
Procedure: We developed a high-performance liquid chromatography-tandem mass spectrometry (HPLC-MS/MS) assay to measure compound 6 with a lower limit of quantification of 1 ng/mL. Single-dose PK parameters of compound 6 were determined in female CBA/J mice (n = 15) given 100 mg/kg s.c. dissolved in the vehicle. Blood was obtained from groups of 3 mice 1, 2, 4, 8, and 24 h postinjection.
As effective antimicrobials must achieve concentrations that exceed their MICs, we next determined whether compound 6 achieved plasma, kidney, bladder, and urinary concentrations in excess of its peak activating concentration of 10 μM in the CpxR reporter assay. […] Blood and urine samples were obtained just prior to the 48-h injection and at 52 h, 4 h after the final dose; we were only able to recover 2 urine samples at those time points. At 52 h, the animals were sacrificed, and tissue levels of compound 6 were determined in the bladder and kidneys. The mean peak and trough levels of compound 6 were 18.6 ± 3.2 μM and 9.6 ± 1.9 μM in the plasma and 344 μM and 151.7 μM in the urine, respectively. The mean tissue levels of compound 6 in the bladder and kidneys were 203 ± 28 μM and 48 ± 4 μM, respectively. Thus, compound 6 achieved levels in the urine, bladder, and kidneys that were ∼5- to 34-fold higher than its peak activating concentration.
Compound 6 was quantified by the IU Simon Comprehensive Cancer Center Clinical Pharmacology Analytical Core from mouse plasma and mouse urine using temazepam (TMP) as the internal standard and HPLC-MS/MS (5500 QTRAP; AB Sciex, Framingham, MA). In brief, compound 6 and TMP were separated by a gradient mobile phase (acetonitrile, 5 mM ammonium acetate) with a Restek Ultra C8 50 by 4.6 mm 5-micron column. The mass spectrometer utilized an electrospray ionization probe run in positive mode. The multiple reaction monitoring (MRM) Q1/Q3 (m/z) transitions for compound 6 and TMP were 187.9/146.0 and 301.1/254.9, respectively. Plasma or urine samples (20 μL) were transferred to glass culture tubes, TMP (20 μL of 0.1 ng/μL) was added as the internal standard, and the extraction was performed by the addition of 2 mL of methyl tertiary butyl ether. The samples were then vortexed, centrifuged, and the organic layer was transferred to a clean glass culture tube and evaporated to dryness. The samples were then reconstituted with 50 μL of the gradient mobile phase, and a 10-μL aliquot was injected to the HPLC-MS/MS. The standard curves were prepared using naive mouse plasma or naive mouse urine as the matched matrix and was linear from 1 to 1,000 ng/mL.
Compound 6 was quantified from the bladder and kidneys using a slightly modified method from the plasma sample analysis. Briefly, the tissue was weighed and then transferred to a polypropylene tube. Phosphate-buffered saline (PBS) (pH 7.4) was added to the tissue to bring the total volume to 0.5 mL (assumption 1 g = 1 mL). The tissue was homogenized using a TissueRuptor with a single use disposable probe. An aliquot (0.4 mL) was transferred to a clean polypropylene tube and temazepam (20 μL of 0.1 ng/μL) was added as the internal standard. The extraction procedure and HPLC-MS/MS conditions were the same as for the plasma samples. The standard curve was prepared using phosphate-buffered saline and was linear from 0.04 to 40 ng/sample.

CFT073 = assay: Growth of CFT073 in human urine (OD600); type: cell-based, Escherichia coli; settings: 150 μM, 5 h
CpxR-P = CpxR-P accumulation in CFT073 cultured in human urine (Phos-Tag gel, Western blot, densitometry); type: cell-based, Escherichia coli; settings: 150 μM, 5 h, 4 experiments
Procedure: To examine whether treatment with compound 26 fostered higher accumulation of CpxR-P in CFT073 than in untreated CFT073 or CFT073ΔcpxA::cat, we cultured CFT073 in human urine in the presence of 150 μM compound 26 dissolved in DMSO, and CFT073 and CFT073ΔcpxA::cat in the presence of DMSO alone (hereafter called the CFT073 and CFT073ΔcpxA::cat controls); we chose 150 μM, as this was the approximate trough concentration of compound 6 detected in murine urine after 3 days of treatment. Briefly, the bacteria were grown in LB medium overnight, pelleted, washed, and inoculated into human urine and allowed to grow for 5 h. […] We harvested bacterial cells, made cell lysates, and detected CpxR and CpxR-P by Western blotting with an anti-MBP-CpxR antiserum as described ([31]). […] To compare the samples, the CpxR and CpxR-P bands were quantified by densitometry using samples from 4 of the independent experiments. […]
E. coli CFT073 and CFT073ΔcpxA::cat were cultured overnight at 37°C in 5 mL of LB medium overnight with shaking. […] Densitometry values were determined using Photoshop 2021 (version 22.4.3), and the ratio of CpxR-P to CpxR was analyzed by one-way ANOVA adjusted for multiple comparisons using the Tukey procedure.

SMILES: NC1CCCc2c1[nH]c1ccc(F)cc21 (stereo not shown) [compound 6]
- concentration at 52 h ([1]; female, CBA/J, mouse, bladder, at 52 h, read-out: mean tissue level in bladder): 203 ± 28 µM
- concentration at 52 h ([1]; female, CBA/J, mouse, kidneys, at 52 h, read-out: mean tissue level in kidneys): 48 ± 4 µM
- concentration at 24 h ([1]; female, CBA/J, mouse, plasma, sc, single dose 100 mg/kg s.c., read-out: plasma concentration at 24 h, mean ± SD): 2390 ng/mL and 11.7 µM
- Tmax ([1]; female, CBA/J, mouse, plasma, sc, single dose 100 mg/kg s.c., read-out: time of peak plasma concentration): 4 h
- concentration at 52 h ([1]; female, CBA/J, mouse, plasma, sample at 52 h, read-out: mean peak level in plasma): 18.6 ± 3.2 µM
- concentration at 48 h ([1]; female, CBA/J, mouse, plasma, read-out: mean trough level in plasma): 9.6 ± 1.9 µM
- concentration at 52 h ([1]; female, CBA/J, mouse, urine, sample at 52 h, 2 samples, read-out: mean peak level in urine): 344 µM
- concentration at 48 h ([1]; female, CBA/J, mouse, urine, 2 samples, read-out: mean trough level in urine): 152 µM
- peak plasma concentration, mean ± SD ([1]; single dose 100 mg/kg s.c., at 4 h, 100 mg/kg): 3,305 ± 696 ng/mL and 16.2 ± 3.4 μM

SMILES: N[C@@H]1CCCc2c1[nH]c1cc(F)c(F)cc21 [compound 26]
- effect on bacterial growth (CFT073): does not inhibit bacterial growth
- OD600 of treated CFT073, mean ± SD (CFT073; 5 independent experiments): 0.52 ± 0.2
- increase of the ratio of CpxR-P to CpxR vs CFT073 control (CpxR-P): 1.3 fold
- increase of the ratio of CpxR-P to CpxR vs CFT073ΔcpxA::cat control (CpxR-P): 1.4 fold

Reference: publication PMC9045377, “CpxA Phosphatase Inhibitor Activates CpxRA and Is a Potential Treatment for Uropathogenic Escherichia coli in a Murine Model of Infection” (Microbiology Spectrum, 2022)
